Earlier results in patent US20110092532A1 (priority 2009, published 2011).
Where two headings read alike, the source gives them in different places.

Assays:
healthy volunteers = details: healthy male volunteers, no anti-emetic drugs
Dog = details: in vivo, sc
[1] = test system: patients with motor fluctuations
Cat = details: subcutaneous
[2] = rats, after oral ingestion, portal vein not shunted
[3] = SL apomorphine, three patients with motor fluctuations

Q: What does the source list for `CN1CCc2cccc3c2[C@H]1Cc1ccc(O)c(O)c1-3` [apomorphine]?
A: amount of intravenous apomorphine which will reliably induce emesis (healthy volunteers): 2.5 mg; Tmax (intranasal route): 23 min; lag time (intranasal route): 2.8 min; Tmax (subcutaneous route): 18 min; lag time (subcutaneous route): 3.9 min; Reversible Toxicity Seen (Dog): 36 to 71 mg/kg; duration of effect [1, 3]: 15 to 100 min; latency to effect [1, 3]: 20 to 40 min; "off" periods ([1]; one patient, SL apomorphine as adjunct with levodopa, during one month): large decrease; Reversible Toxicity Seen (Cat): 136 mg/kg; tissue levels of apomorphine [2]: not detectable
